The source made the active and inactive calls.
Assays:
[1] = Cytotoxicity against human U937 cells after 72 hrs by MTT assay; assay type: cell-based, U-937; conditions: read-out: LC50
[2] = tested on: Leishmania braziliensis; test: Antileishmanial activity against Leishmania (Viannia) braziliensis HMOM/COL/88/UA301-EGFP intracellular amastigotes infected in human U937 cells after 72 hrs by flow cytometric analysis; assay type: functional, organism-based; conditions: HMOM/COL/88/UA301, U-937, 72 h
[3] = Selectivity index, ratio of LC50 for human U937 cells to EC50 for Leishmania (Viannia) braziliensis HMOM/COL/88/UA301-EGFP intracellular amastigotes infected in human U937 cells; assay type: toxicity, cell-based; conditions: read-out: Selectivity Index
[4] = tested on: Leishmania braziliensis; test: Antileishmanial activity against Leishmania (Viannia) braziliensis HMOM/COL/88/UA301-EGFP infected in golden hamster assessed as cure rate at 2.6% administered topically as cream formulation for 20 days measured 3 months post last dose relative to control; assay type: functional
[5] = tested on: Leishmania braziliensis; test: Antileishmanial activity against Leishmania (Viannia) braziliensis HMOM/COL/88/UA301-EGFP infected in golden hamster assessed as clinical failure at 2.6% administered topically as cream formulation for 20 days measured 3 months post last dose relative to control; assay type: functional
[6] = tested on: Leishmania braziliensis; test: Antileishmanial activity against Leishmania (Viannia) braziliensis HMOM/COL/88/UA301-EGFP infected in golden hamster assessed as relapse at 2.6% administered topically as cream formulation for 20 days measured 3 months post last dose relative to control; assay type: functional
[7] = Toxicity in golden hamster infected with Leishmania (Viannia) braziliensis HMOM/COL/88/UA301-EGFP assessed as change in body weight at 2.6% administered topically as cream formulation for 20 days measured up to 90 days post last dose; set-up: species or system Mesocricetus auratus; conditions: in vivo, topical_or_ocular
[8] = Toxicity in golden hamster infected with Leishmania (Viannia) braziliensis HMOM/COL/88/UA301-EGFP assessed as effect on serum alanine aminotransferase level at 2.6% administered topically as cream formulation for 20 days and measured day 8 post last treatment; set-up: species or system Mesocricetus auratus; conditions: in vivo, topical_or_ocular, 480 h
[9] = Toxicity in golden hamster infected with Leishmania (Viannia) braziliensis HMOM/COL/88/UA301-EGFP assessed as effect on serum creatinine level at 2.6% administered topically as cream formulation for 20 days and measured day 8 post last treatment; set-up: species or system Mesocricetus auratus; conditions: in vivo, topical_or_ocular, 480 h
[10] = Toxicity in golden hamster infected with Leishmania (Viannia) braziliensis HMOM/COL/88/UA301-EGFP assessed as effect on serum BUN level at 2.6% administered topically as cream formulation for 20 days and measured day 8 post last treatment; set-up: species or system Mesocricetus auratus; conditions: in vivo, topical_or_ocular, 480 h
[11] = tested on: Leishmania braziliensis; test: Antileishmanial activity against Leishmania (Viannia) braziliensis HMOM/COL/88/UA301-EGFP infected in golden hamster assessed as clinical improvement at 2.6% administered topically as cream formulation for 20 days measured 3 months post last dose relative to control; assay type: functional
[12] = tested on: Syrian golden hamster; test: Antiinflammatory activity in golden hamster infected with Leishmania (Viannia) braziliensis HMOM/COL/88/UA301-EGFP assessed as migration of lymphocytes in skin at 2.6% administered topically as cream formulation for 20 days and measured 3 months post last treatment by histopathological analysis; assay type: functional, organism-based; conditions: Mesocricetus auratus
[13] = tested on: Syrian golden hamster; test: Antiinflammatory activity in golden hamster infected with Leishmania (Viannia) braziliensis HMOM/COL/88/UA301-EGFP assessed as migration of plasmocytes in skin at 2.6% administered topically as cream formulation for 20 days and measured 3 months post last treatment by histopathological analysis; assay type: functional, organism-based; conditions: Mesocricetus auratus
[14] = tested on: Syrian golden hamster; test: Antiinflammatory activity in golden hamster infected with Leishmania (Viannia) braziliensis HMOM/COL/88/UA301-EGFP assessed as migration of macrophages in skin at 2.6% administered topically as cream formulation for 20 days and measured 3 months post last treatment by histopathological analysis; assay type: functional, organism-based; conditions: Mesocricetus auratus
[15] = tested on: Syrian golden hamster; test: Antiinflammatory activity in golden hamster infected with Leishmania (Viannia) braziliensis HMOM/COL/88/UA301-EGFP assessed as re-epithelialization in skin at 2.6% administered topically as cream formulation for 20 days and measured 3 months post last treatment by histopathological analysis; assay type: functional, organism-based; conditions: Mesocricetus auratus
[16] = Hepatotoxicity in golden hamster infected with Leishmania (Viannia) braziliensis HMOM/COL/88/UA301-EGFP assessed as vacuolar degeneration at 2.6% administered topically as cream formulation for 20 days measured 90 days post last dose by histopathological analysis; assay type: toxicity, Mesocricetus auratus; conditions: in vivo, topical_or_ocular, 2160 h
[17] = Hepatotoxicity in golden hamster infected with Leishmania (Viannia) braziliensis HMOM/COL/88/UA301-EGFP assessed as hemosiderin pigmentation at 2.6% administered topically as cream formulation for 20 days measured 90 days post last dose by histopathological analysis; assay type: toxicity, Mesocricetus auratus; conditions: in vivo, topical_or_ocular, 2160 h
[18] = Hepatotoxicity in golden hamster infected with Leishmania (Viannia) braziliensis HMOM/COL/88/UA301-EGFP assessed as congestion at 2.6% administered topically as cream formulation for 20 days measured 90 days post last dose by histopathological analysis; assay type: toxicity, Mesocricetus auratus; conditions: in vivo, topical_or_ocular, 2160 h
[19] = Hepatotoxicity in golden hamster infected with Leishmania (Viannia) braziliensis HMOM/COL/88/UA301-EGFP assessed as infiltration of lymphocytes at 2.6% administered topically as cream formulation for 20 days measured 90 days post last dose by histopathological analysis; assay type: toxicity, Mesocricetus auratus; conditions: in vivo, topical_or_ocular, 2160 h
[20] = Hepatotoxicity in golden hamster infected with Leishmania (Viannia) braziliensis HMOM/COL/88/UA301-EGFP assessed as infiltration of macrophages at 2.6% administered topically as cream formulation for 20 days measured 90 days post last dose by histopathological analysis; assay type: toxicity, Mesocricetus auratus; conditions: in vivo, topical_or_ocular, 2160 h
[21] = Renal toxicity in golden hamster infected with Leishmania (Viannia) braziliensis HMOM/COL/88/UA301-EGFP assessed as vacuolar degeneration at 2.6% administered topically as cream formulation for 20 days measured 90 days post last dose by histopathological analysis; set-up: species or system Mesocricetus auratus; conditions: in vivo, topical_or_ocular, 2160 h
[22] = Toxicity in golden hamster infected with Leishmania (Viannia) braziliensis HMOM/COL/88/UA301-EGFP assessed as change in body weight at 200 ug administered intralesionally twice per week for 4 weeks measured up to 90 days post last dose; set-up: species or system Mesocricetus auratus; conditions: in vivo, other
[23] = Toxicity in golden hamster infected with Leishmania (Viannia) braziliensis HMOM/COL/88/UA301-EGFP assessed as effect on serum alanine aminotransferase level at 200 ug administered intralesionally twice per week for 4 weeks measured day 8 post last treatment; set-up: species or system Mesocricetus auratus; conditions: in vivo, other, 672 h
[24] = Toxicity in golden hamster infected with Leishmania (Viannia) braziliensis HMOM/COL/88/UA301-EGFP assessed as effect on serum BUN level at 200 ug administered intralesionally twice per week for 4 weeks measured day 8 post last treatment; set-up: species or system Mesocricetus auratus; conditions: in vivo, other, 672 h
[25] = Toxicity in golden hamster infected with Leishmania (Viannia) braziliensis HMOM/COL/88/UA301-EGFP assessed as effect on serum creatinine level at 200 ug administered intralesionally twice per week for 4 weeks measured day 8 post last treatment; set-up: species or system Mesocricetus auratus; conditions: in vivo, other, 672 h
[26] = Hepatotoxicity in golden hamster infected with Leishmania (Viannia) braziliensis HMOM/COL/88/UA301-EGFP assessed as vacuolar degeneration at 200 ug administered intralesionally twice per week for 4 weeks measured 90 days post last dose by histopathological analysis; assay type: toxicity, Mesocricetus auratus; conditions: in vivo, other, 2160 h
[27] = Hepatotoxicity in golden hamster infected with Leishmania (Viannia) braziliensis HMOM/COL/88/UA301-EGFP assessed as hemosiderin pigmentation at 200 ug administered intralesionally twice per week for 4 weeks measured 90 days post last dose by histopathological analysis; assay type: toxicity, Mesocricetus auratus; conditions: in vivo, other, 2160 h
[28] = Hepatotoxicity in golden hamster infected with Leishmania (Viannia) braziliensis HMOM/COL/88/UA301-EGFP assessed as congestion at 200 ug administered intralesionally twice per week for 4 weeks measured 90 days post last dose by histopathological analysis; assay type: toxicity, Mesocricetus auratus; conditions: in vivo, other, 2160 h
[29] = Hepatotoxicity in golden hamster infected with Leishmania (Viannia) braziliensis HMOM/COL/88/UA301-EGFP assessed as infiltration of lymphocytes at 200 ug administered intralesionally twice per week for 4 weeks measured 90 days post last dose by histopathological analysis; assay type: toxicity, Mesocricetus auratus; conditions: in vivo, other, 2160 h
[30] = Hepatotoxicity in golden hamster infected with Leishmania (Viannia) braziliensis HMOM/COL/88/UA301-EGFP assessed as infiltration of macrophages at 200 ug administered intralesionally twice per week for 4 weeks measured 90 days post last dose by histopathological analysis; assay type: toxicity, Mesocricetus auratus; conditions: in vivo, other, 2160 h
[31] = Hepatotoxicity in golden hamster infected with Leishmania (Viannia) braziliensis HMOM/COL/88/UA301-EGFP assessed as hyperplasia at 200 ug administered intralesionally twice per week for 4 weeks measured 90 days post last dose by histopathological analysis; assay type: toxicity, Mesocricetus auratus; conditions: in vivo, other, 2160 h
[32] = Renal toxicity in golden hamster infected with Leishmania (Viannia) braziliensis HMOM/COL/88/UA301-EGFP assessed as turbid degeneration at 200 ug administered intralesionally twice per week for 4 weeks measured 90 days post last dose by histopathological analysis; set-up: species or system Mesocricetus auratus; conditions: in vivo, other, 2160 h
[33] = Renal toxicity in golden hamster infected with Leishmania (Viannia) braziliensis HMOM/COL/88/UA301-EGFP assessed as edema at 200 ug administered intralesionally twice per week for 4 weeks measured 90 days post last dose by histopathological analysis; set-up: species or system Mesocricetus auratus; conditions: in vivo, other, 2160 h
[34] = Renal toxicity in golden hamster infected with Leishmania (Viannia) braziliensis HMOM/COL/88/UA301-EGFP assessed as fibrosis at 200 ug administered intralesionally twice per week for 4 weeks measured 90 days post last dose by histopathological analysis; set-up: species or system Mesocricetus auratus; conditions: in vivo, other, 2160 h
[35] = Renal toxicity in golden hamster infected with Leishmania (Viannia) braziliensis HMOM/COL/88/UA301-EGFP assessed as infiltration of plasma cells at 200 ug administered intralesionally twice per week for 4 weeks measured 90 days post last dose by histopathological analysis; set-up: species or system Mesocricetus auratus; conditions: in vivo, other, 2160 h
[36] = Renal toxicity in golden hamster infected with Leishmania (Viannia) braziliensis HMOM/COL/88/UA301-EGFP assessed as infiltration of lymphocytes at 200 ug administered intralesionally twice per week for 4 weeks measured 90 days post last dose by histopathological analysis; set-up: species or system Mesocricetus auratus; conditions: in vivo, other, 2160 h
[37] = Renal toxicity in golden hamster infected with Leishmania (Viannia) braziliensis HMOM/COL/88/UA301-EGFP assessed as vacuolar degeneration at 200 ug administered intralesionally twice per week for 4 weeks measured 90 days post last dose by histopathological analysis; set-up: species or system Mesocricetus auratus; conditions: in vivo, other, 2160 h
[38] = Hepatotoxicity in golden hamster infected with Leishmania (Viannia) braziliensis HMOM/COL/88/UA301-EGFP assessed as external stress condition induced changes at 200 ug administered intralesionally twice per week for 4 weeks measured 90 days post last dose by histopathological analysis; assay type: toxicity, Mesocricetus auratus; conditions: in vivo, other, 2160 h

C[C@]12C=C[C@@]3(CC[C@@H]4[C@@](C)(CO)CCC[C@@]4(C)[C@@H]3CC1)C2
16.7%: Activity [6]
7.7: selectivity ratio [3]
18.1 µM: EC50 [2]
33.3%: Activity [5]
50%: Activity [4]
active: Activity [12] | Activity [13] | Activity [14] | Activity [15]
Non-Toxic: Activity [7] | Activity [8] | Activity [9] | Activity [10]
0%: Activity [11]
Toxic: Activity [16] | Activity [17] | Activity [18] | Activity [19] | Activity [20] | Activity [21]
122 µM: CC50 at 72 h [1]

MEGLUMINE ANTIMONATE
Non-Toxic: Activity [23] | Activity [24] | Activity [25]
Toxic: Activity [22] | Activity [26] | Activity [27] | Activity [28] | Activity [29] | Activity [30] | Activity [31] | Activity [32] | Activity [33] | Activity [34] | Activity [35] | Activity [36] | Activity [37] | Activity [38]

Reference: ChEMBL document CHEMBL4308897, “Antileishmanial activity and cytotoxicity of ent-beyerene diterpenoids” (Bioorg Med Chem, 2019)
